# Data as given in patent publication US4791139A, “Diphenyl ether derivatives and their use as insecticides” (Imperial Chemical Industries PLC, priority 1986, dated 1988).
# System: Blattella germanica (cockroach nymphs)
# Test: Residual test, cockroach nymphs (BG), Plastic pot
# Type: in vivo
# Conditions: 72 h, 250 ppm, 3 days, read-out: BG grading of mortality
# Method in brief: (§1)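 Insects placed on host plant or food medium; medium and/or insects treated with aqueous preparations of 100 to 500 ppm Product by weight, made from acetone solutions diluted in water with 0.1% wetting agent. Mortality was then assessed, usually after one to seven days.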
row,Structure (SMILES),mortality at 250 ppm
1,"CCOc1ccc(C(CCCc2cccc(Oc3ccccc3)c2)C(F)(F)C(F)(F)F)cc1 (racemic) [Compound 11, 1,1,1,2,2-Pentafluoro-3-(4-ethoxyphenyl)-6-(3-phenoxyphenyl)hexane]",< 50%
2,"CCOc1ccc(C(CCCc2ccc(F)c(Oc3ccccc3)c2)C(F)(F)F)cc1 (racemic) [Compound 5, 1,1,1-Trifluoro-2-(4-ethoxyphenyl)-5-(4-fluoro-3-phenoxyphenyl)pentane]",80 to 100%
3,"FC(F)(F)C(=CCCc1cccc(Oc2ccccc2)c1)c1ccc(C(F)(F)F)cc1 [Compound 15, 5-(3-phenoxyphenyl)-1,1,1-trifluoro-2-(4-trifluoromethylphenyl)pent-2-ene]",80 to 100%

# System: Musca domestica (houseflies - adults)
# Test: Knockdown test, houseflies - adults (MD/KD), Cotton wool/sugar
# Type: in vivo
# Conditions: 250 ppm, 4 hours, read-out: MD/KD grading of knockdown
# Method in brief: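 Product was dissolved in acetone and diluted with water containing 0.1% wetting agent to 100–500 ppm. The flies and/or their food medium were treated with the preparation. Mortality was scored 1–7 days after treatment, with an additional knockdown assessment for houseflies.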
row,Structure (SMILES),pest or weed control at 250 ppm
1,"CCOc1ccc(C(CCCc2cccc(Oc3ccccc3)c2)C(F)(F)C(F)(F)F)cc1 (racemic) [Compound 11, 1,1,1,2,2-Pentafluoro-3-(4-ethoxyphenyl)-6-(3-phenoxyphenyl)hexane]",80 to 100%
2,"CCOc1ccc(C(CCCc2ccc(F)c(Oc3ccccc3)c2)C(F)(F)F)cc1 (racemic) [Compound 5, 1,1,1-Trifluoro-2-(4-ethoxyphenyl)-5-(4-fluoro-3-phenoxyphenyl)pentane]",80 to 100%
3,"FC(F)(F)C(=CCCc1cccc(Oc2ccccc2)c1)c1ccc(C(F)(F)F)cc1 [Compound 15, 5-(3-phenoxyphenyl)-1,1,1-trifluoro-2-(4-trifluoromethylphenyl)pent-2-ene]",< 50%

# System: Nilaparvata lugens (brown plant hopper - nymphs)
# Test: Contact test, brown plant hopper - nymphs (NL), Rice plant
# Type: in vivo
# Conditions: 72 h, 250 ppm, 3 days, read-out: NL grading of mortality
# Method in brief: as §1
row,Structure (SMILES),mortality at 250 ppm
1,"CCOc1ccc(C(CCCc2cccc(Oc3ccccc3)c2)C(F)(F)C(F)(F)F)cc1 (racemic) [Compound 11, 1,1,1,2,2-Pentafluoro-3-(4-ethoxyphenyl)-6-(3-phenoxyphenyl)hexane]",< 50%
2,"CCOc1ccc(C(CCCc2ccc(F)c(Oc3ccccc3)c2)C(F)(F)F)cc1 (racemic) [Compound 5, 1,1,1-Trifluoro-2-(4-ethoxyphenyl)-5-(4-fluoro-3-phenoxyphenyl)pentane]",80 to 100%
3,"FC(F)(F)C(=CCCc1cccc(Oc2ccccc2)c1)c1ccc(C(F)(F)F)cc1 [Compound 15, 5-(3-phenoxyphenyl)-1,1,1-trifluoro-2-(4-trifluoromethylphenyl)pent-2-ene]",< 50%

# System: Tetranychus urticae (spider mites - adult)
# Test: Contact test, spider mites - adult (TUa), French bean leaf
# Type: in vivo
# Conditions: 72 h, 250 ppm, 3 days, read-out: TUA grading of mortality
# Method in brief: as §1
row,Structure (SMILES),mortality at 250 ppm
1,"CCOc1ccc(C(CCCc2cccc(Oc3ccccc3)c2)C(F)(F)C(F)(F)F)cc1 (racemic) [Compound 11, 1,1,1,2,2-Pentafluoro-3-(4-ethoxyphenyl)-6-(3-phenoxyphenyl)hexane]",< 50%
2,"CCOc1ccc(C(CCCc2ccc(F)c(Oc3ccccc3)c2)C(F)(F)F)cc1 (racemic) [Compound 5, 1,1,1-Trifluoro-2-(4-ethoxyphenyl)-5-(4-fluoro-3-phenoxyphenyl)pentane]",80 to 100%
3,"FC(F)(F)C(=CCCc1cccc(Oc2ccccc2)c1)c1ccc(C(F)(F)F)cc1 [Compound 15, 5-(3-phenoxyphenyl)-1,1,1-trifluoro-2-(4-trifluoromethylphenyl)pent-2-ene]",50 to 79%

# System: Myzus persicae (aphids)
# Test: Contact test, aphids (MP), Chinese Cabbage leaf
# Type: in vivo
# Conditions: 72 h, 250 ppm, 3 days, read-out: MP grading of mortality
# Method in brief: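 Aphids on a host plant and/or the plant itself were treated with 100–500 ppm of product, applied from acetone diluted in water containing 0.1% SYNPERONIC NX wetting agent. Mortality was scored usually one to seven days after treatment.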
row,Structure (SMILES),mortality at 250 ppm
1,"CCOc1ccc(C(CCCc2cccc(Oc3ccccc3)c2)C(F)(F)C(F)(F)F)cc1 (racemic) [Compound 11, 1,1,1,2,2-Pentafluoro-3-(4-ethoxyphenyl)-6-(3-phenoxyphenyl)hexane]",< 50%
2,"CCOc1ccc(C(CCCc2ccc(F)c(Oc3ccccc3)c2)C(F)(F)F)cc1 (racemic) [Compound 5, 1,1,1-Trifluoro-2-(4-ethoxyphenyl)-5-(4-fluoro-3-phenoxyphenyl)pentane]",80 to 100%
3,"FC(F)(F)C(=CCCc1cccc(Oc2ccccc2)c1)c1ccc(C(F)(F)F)cc1 [Compound 15, 5-(3-phenoxyphenyl)-1,1,1-trifluoro-2-(4-trifluoromethylphenyl)pent-2-ene]",< 50%

# System: Chilo partellus (Maize stemborer - larvae)
# Test: Residual test, Maize stemborer - larvae (CP), Oilseed rape
# Type: in vivo
# Conditions: 72 h, 250 ppm, 3 days, read-out: CP grading of mortality
# Experimental: The activity of the Product was determined using a variety of insect pests. The Product was used in the form of liquid preparations containing from 100 to 500 parts per million (ppm) by weight of the Product. The preparations were made by dissolving the Product in acetone and diluting the solutions with water containing 0.1% by weight of a wetting agent sold under the trade name "SYNPERONIC" NX until the liquid preparations contained the required concentration of the Product. "SYNPERONIC" is a Registered Trade Mark.
# The test procedure adopted with regard to each pest was basically the same and comprised supporting a number of the pests on a medium which was usually a host plant or a foodstuff on which the pests feed, and treating either or both the pests and the medium with the preparations. The mortality of the pests was then assessed at periods usually varying from one to seven days after the treatment.
# The results of the tests are given in Table III for each of the Products, at the rate in parts per million given in the second column as a grading of mortality designated as A, B or C wherein A indicates 80-100% mortality or knockdown (70-100% for Meloidogyne incognita), B indicates 50-79% mortality knockdown or knockdown (50-69% for Meloidogyne incognita) and C indicates less than 50% mortality or knockdown.
# In Table III the pest organism used is designated by a letter code and the pests species, the support medium or food, and the type and duration of test is given in Table II.
# (Maize stemborer - larvae)
row,Structure (SMILES),mortality at 250 ppm
1,"CCOc1ccc(C(CCCc2cccc(Oc3ccccc3)c2)C(F)(F)C(F)(F)F)cc1 (racemic) [Compound 11, 1,1,1,2,2-Pentafluoro-3-(4-ethoxyphenyl)-6-(3-phenoxyphenyl)hexane]",< 50%
2,"CCOc1ccc(C(CCCc2ccc(F)c(Oc3ccccc3)c2)C(F)(F)F)cc1 (racemic) [Compound 5, 1,1,1-Trifluoro-2-(4-ethoxyphenyl)-5-(4-fluoro-3-phenoxyphenyl)pentane]",80 to 100%
3,"FC(F)(F)C(=CCCc1cccc(Oc2ccccc2)c1)c1ccc(C(F)(F)F)cc1 [Compound 15, 5-(3-phenoxyphenyl)-1,1,1-trifluoro-2-(4-trifluoromethylphenyl)pent-2-ene]",80 to 100%

# System: Musca domestica (houseflies - adults)
# Test: Contact test, houseflies - adults (MD), Cotton wool/sugar
# Type: in vivo
# Conditions: 24 h, 250 ppm, 1 day, read-out: MD grading of mortality
# Method in brief: as §1
row,Structure (SMILES),mortality at 250 ppm
1,"CCOc1ccc(C(CCCc2cccc(Oc3ccccc3)c2)C(F)(F)C(F)(F)F)cc1 (racemic) [Compound 11, 1,1,1,2,2-Pentafluoro-3-(4-ethoxyphenyl)-6-(3-phenoxyphenyl)hexane]",< 50%
2,"CCOc1ccc(C(CCCc2ccc(F)c(Oc3ccccc3)c2)C(F)(F)F)cc1 (racemic) [Compound 5, 1,1,1-Trifluoro-2-(4-ethoxyphenyl)-5-(4-fluoro-3-phenoxyphenyl)pentane]",80 to 100%
3,"FC(F)(F)C(=CCCc1cccc(Oc2ccccc2)c1)c1ccc(C(F)(F)F)cc1 [Compound 15, 5-(3-phenoxyphenyl)-1,1,1-trifluoro-2-(4-trifluoromethylphenyl)pent-2-ene]",< 50%

# System: Diabrotica balteata (rootworm larvae)
# Test: Residual test, rootworm larvae (DB), Filter paper/maize seed
# Type: in vivo
# Conditions: 72 h, 250 ppm, 3 days, read-out: DB grading of mortality
# Method in brief: as §1
row,Structure (SMILES),mortality at 250 ppm
1,"CCOc1ccc(C(CCCc2cccc(Oc3ccccc3)c2)C(F)(F)C(F)(F)F)cc1 (racemic) [Compound 11, 1,1,1,2,2-Pentafluoro-3-(4-ethoxyphenyl)-6-(3-phenoxyphenyl)hexane]",< 50%
2,"CCOc1ccc(C(CCCc2ccc(F)c(Oc3ccccc3)c2)C(F)(F)F)cc1 (racemic) [Compound 5, 1,1,1-Trifluoro-2-(4-ethoxyphenyl)-5-(4-fluoro-3-phenoxyphenyl)pentane]",80 to 100%
3,"FC(F)(F)C(=CCCc1cccc(Oc2ccccc2)c1)c1ccc(C(F)(F)F)cc1 [Compound 15, 5-(3-phenoxyphenyl)-1,1,1-trifluoro-2-(4-trifluoromethylphenyl)pent-2-ene]",< 50%

# System: Tetranychus urticae (spider mites - ova)
# Test: Contact test, spider mites - ova (TUe), French bean leaf
# Type: in vivo
# Conditions: 144 h, 250 ppm, 6 days, read-out: TUE grading of mortality
# Method in brief: as §1
row,Structure (SMILES),mortality at 250 ppm
1,"CCOc1ccc(C(CCCc2cccc(Oc3ccccc3)c2)C(F)(F)C(F)(F)F)cc1 (racemic) [Compound 11, 1,1,1,2,2-Pentafluoro-3-(4-ethoxyphenyl)-6-(3-phenoxyphenyl)hexane]",< 50%
2,"CCOc1ccc(C(CCCc2ccc(F)c(Oc3ccccc3)c2)C(F)(F)F)cc1 (racemic) [Compound 5, 1,1,1-Trifluoro-2-(4-ethoxyphenyl)-5-(4-fluoro-3-phenoxyphenyl)pentane]",50 to 79%
3,"FC(F)(F)C(=CCCc1cccc(Oc2ccccc2)c1)c1ccc(C(F)(F)F)cc1 [Compound 15, 5-(3-phenoxyphenyl)-1,1,1-trifluoro-2-(4-trifluoromethylphenyl)pent-2-ene]",< 50%

# System: Heliothis virescens (tobacco budworm - larvae)
# Test: Residual test, tobacco budworm - larvae (HV), Cotton leaf
# Type: in vivo
# Conditions: 72 h, read-out: HV grading of mortality
# Method in brief: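 Products applied as acetone solutions diluted in water with 0.1% wetting agent, at 100–500 ppm; pests on host plant or food, with pests and/or medium treated. Mortality or knockdown scored 1–7 days after treatment and graded A (80–100%), B (50–79%) or C (<50%).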
row,Structure (SMILES),mortality at 250 ppm
1,"CCOc1ccc(C(CCCc2cccc(Oc3ccccc3)c2)C(F)(F)C(F)(F)F)cc1 (racemic) [Compound 11, 1,1,1,2,2-Pentafluoro-3-(4-ethoxyphenyl)-6-(3-phenoxyphenyl)hexane]",< 50%
2,"CCOc1ccc(C(CCCc2ccc(F)c(Oc3ccccc3)c2)C(F)(F)F)cc1 (racemic) [Compound 5, 1,1,1-Trifluoro-2-(4-ethoxyphenyl)-5-(4-fluoro-3-phenoxyphenyl)pentane]",80 to 100%
3,"FC(F)(F)C(=CCCc1cccc(Oc2ccccc2)c1)c1ccc(C(F)(F)F)cc1 [Compound 15, 5-(3-phenoxyphenyl)-1,1,1-trifluoro-2-(4-trifluoromethylphenyl)pent-2-ene]",80 to 100%

# System: Meloidogyne incognita (Tomato root knot eelworm - larvae)
# Test: Residual test, Tomato root knot eelworm - larvae (MI), Semi in-vitro
# Type: in vivo
# Conditions: 168 h, rate 250 ppm, application rate is half that recorded, 7 days, read-out: MI grading of mortality
row,Structure (SMILES),mortality at 125 µg/mL
1,"CCOc1ccc(C(CCCc2cccc(Oc3ccccc3)c2)C(F)(F)C(F)(F)F)cc1 (racemic) [Compound 11, 1,1,1,2,2-Pentafluoro-3-(4-ethoxyphenyl)-6-(3-phenoxyphenyl)hexane]",< 50%
2,"CCOc1ccc(C(CCCc2ccc(F)c(Oc3ccccc3)c2)C(F)(F)F)cc1 (racemic) [Compound 5, 1,1,1-Trifluoro-2-(4-ethoxyphenyl)-5-(4-fluoro-3-phenoxyphenyl)pentane]",< 50%
3,"FC(F)(F)C(=CCCc1cccc(Oc2ccccc2)c1)c1ccc(C(F)(F)F)cc1 [Compound 15, 5-(3-phenoxyphenyl)-1,1,1-trifluoro-2-(4-trifluoromethylphenyl)pent-2-ene]",< 50%
